From patent US8309589B2, “Fluorine-containing organosulfur compound and pesticidal composition comprising the same” (Sumitomo Chemical Company, Limited, priority 2007, dated 2012)

Test system: Blattalla germanica
Assay: Test Example 4: filter paper with sucrose bait, Blattalla germanica
Type: in vivo
Details: 500 ppm, 0.7 ml on filter paper; 2 male imagoes; after 6 days
Protocol: A formulation of any one of the present compounds (2), (3) and (4) obtained according to Formulation Example 10 was diluted with water so that the active ingredient concentration was 500 ppm to obtain a test solution.
A filter paper having a diameter of 5.5 cm was spread on the bottom of a polyethylene cup having a diameter of 5.5 cm and 0.7 ml of the test solution was added dropwise onto the filter paper. As a bait 30 mg of sucrose was uniformly placed on the filter paper. Into the polyethylene cup, 2 male imagoes of Blattalla germanica were released and the cup was sealed with a lid. After 6 days, the number of surviving Blattalla germanica was examined and the death rate of the pest was calculated.

Work on `CC(C)(C)c1cc(CSCCC(F)(F)F)no1` [present compound (2), 5-tert-butyl-3-[(3,3,3-trifluoropropylsulfanyl)methyl]isoxazole] yielded a pest death rate of 100%.

With `CC(C)(C)n1cc(CSCCC(F)(F)F)cn1` [present compound (4), 1-tert-butyl-4-[(3,3,3-trifluoropropylsulfanyl)methyl]-1H-pyrazole] the pest death rate was 100%.

In the case of `FC(F)(F)CCSCn1cnc(C(F)(F)F)c1` [present compound (3), 4-trifluoromethyl-1-[(3,3,3-trifluoropropylsulfanyl)methyl]-1H-imidazole], the pest death rate was 100%.
